According to patent publication US20240180881A1, “METHODS FOR DECREASING RESISTANCE TO CHEMOTHERAPY” (National Institute of Immunology, priority 2022, published 2024):

Tests used:
His-RAD54 WT = target: T1, His-RAD54 WT (Homo sapiens, UniProt Q92698); test: Octet Bio-Layer Interferometry (BLI) binding; details: His-RAD54 WT immobilized onto Ni-NTA-sensor, 25° C.; read-out: affinity constant (KD)
T1 construct: made in house; host or cells: E. coli BL-21 DE3
T1 sequence (Q92698 1-747): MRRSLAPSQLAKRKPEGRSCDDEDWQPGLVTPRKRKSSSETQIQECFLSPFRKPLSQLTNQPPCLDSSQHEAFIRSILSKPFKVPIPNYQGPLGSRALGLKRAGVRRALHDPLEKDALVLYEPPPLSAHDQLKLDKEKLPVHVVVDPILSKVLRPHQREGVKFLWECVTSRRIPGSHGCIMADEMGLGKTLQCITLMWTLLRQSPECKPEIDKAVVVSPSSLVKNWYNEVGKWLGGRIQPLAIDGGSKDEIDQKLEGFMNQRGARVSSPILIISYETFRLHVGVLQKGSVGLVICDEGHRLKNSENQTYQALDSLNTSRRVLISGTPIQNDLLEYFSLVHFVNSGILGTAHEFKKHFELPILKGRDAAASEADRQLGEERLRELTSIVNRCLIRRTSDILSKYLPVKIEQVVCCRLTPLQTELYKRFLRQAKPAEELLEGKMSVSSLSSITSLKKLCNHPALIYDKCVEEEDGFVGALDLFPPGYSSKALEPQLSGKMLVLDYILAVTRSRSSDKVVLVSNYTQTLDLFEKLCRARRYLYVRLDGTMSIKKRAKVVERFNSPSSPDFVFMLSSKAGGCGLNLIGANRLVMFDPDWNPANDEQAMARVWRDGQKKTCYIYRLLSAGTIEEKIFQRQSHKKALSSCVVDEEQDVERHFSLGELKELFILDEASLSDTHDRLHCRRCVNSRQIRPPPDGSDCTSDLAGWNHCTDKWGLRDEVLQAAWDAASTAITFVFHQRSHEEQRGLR
Description: The interactions between RAD54 and biotinylated BLM_peptide (181-212) as well as the various compounds were studied using Bio-layer interferometry (BLI) using the Octet K2 system (ForteBio Systems). Approximately, 250 μg of His-tagged RAD54 was immobilized onto a Ni-NTA chip for 600 s and the unbound protein was washed using 10 mM HEPES pH 7.5 buffer. […] Each of the reaction set was then used to check for their association with RAD54 captured on the sensor. The kinetics of the RAD54-BLM interaction was monitored for 180 s each for the association and the dissociation curves by dipping the sensors in a series of increasing concentrations of the BLM_peptide. 500 mM NaCl was used as the dissociation buffer. A control sensor with the immobilized RAD54 was used in parallel and was used to normalize the data. Washing in 350 mM EDTA regenerated the sensors for the next cycle of binding kinetics. The experiments were performed at 25° C. All the real-time data was analysed and KD values were determined using the Octet® Evaluation software using 1:1 fitting curves.

RAD54-BLM interaction = target: T2, RAD54-BLM interaction (Homo sapiens, UniProt Q92698); test: In vitro interaction assay, bound GST-BLM WT and soluble His-RAD54 WT; format: binding; details: 10 μM compound
T2 construct: made in house; host or cells: E. coli BL-21 DE3
T2 sequence (Q92698 1-747): T1 sequence (Q92698 1-747)
Description: The levels of bound RAD54 were determined by immunoblotting with anti-RAD54 antibody (FIG. 5B). […] (Left) Direct westerns were carried out with antibodies against BLM, RAD54, bActin. (Right) immunoprecipitation (IP) was carried out with anti-BLM antibody. Westerns were carried out with anti-BLM, anti-RAD54 antibodies. The experiment was repeated three times and one representative experiment has been shown (FIG. 11B).
pcDNA3.1 Flag RAD54 was used for coupled in vitro transcription/translation of RAD54 using T7 Quick coupled Transcription/Translation System kit S^35 methionine. Interaction between bound GST-BLM (wildtype or mutants) and radiolabelled RAD54 were carried out as described previously (Gupta et al., 2014). […] 10 μM of the 3 compounds were used in the in vitro interaction assays.

RAD54 = target: T3, RAD54 (Homo sapiens, UniProt Q92698); test: ATP binding assay; format: biochemical; details: 10 μM compound
T3 construct: GST RAD54 (1-747) (WT); made in house; host or cells: E. coli BL-21 DE3
T3 sequence (Q92698 1-747): T1 sequence (Q92698 1-747)
Description: The quantitation of the ATP binding assay was carried out using RAD54 WT, RAD54 WT+BLM_peptide, and RAD54 WT+SCM_peptide. The data is from three independent experiments. Mean±S.D.
(§1) The presence of the disruptors also led to a decrease in the ATP binding to RAD54.
A 20 μl reaction was set up with 120 nM of GST-RAD54 and 180 nM of either BLM_peptide or SCM_peptide or BLM (1-212) using 4 μl of 5×ATP binding assay buffer (100 mM Tris-Cl pH 7.5, 50 mM MgCl2, 10 mM MnCl2, 5 mM DTT) and 5 μCi of [γ^32P]dATP. […] Reactions were incubated at 30° C. for 20 minutes and were stopped with 10% TCA and samples were spotted on P81 phosphocellulose paper followed by washing of paper strips with 75 mM orthophosphoric acid. A minimum of 8 washes were given in 20 hrs of 1 hr each including a 12 hr wash. Following this, strips were dehydrated in ethanol for 10 min followed by liquid scintillation counting. Reactions without the substrate were spotted as control and the same process repeated.

RAD54 ATPase activity = target: T4, RAD54 ATPase activity (Homo sapiens, UniProt Q92698); test: ATPase assay; format: biochemical; details: 10 μM compound
T4 construct: made in house; host or cells: E. coli BL-21 DE3
T4 sequence (Q92698 1-747): T1 sequence (Q92698 1-747)
Description: The data is from three independent experiments. Mean±S.D.
as §1
Assay for RAD54 ATPase activity was carried out as per the previously published protocol (Srivastava et al., 2009). His-RAD54 (120 nM) was incubated with the GST-BLM (1-212) or BLM_peptide or SCM_peptide (180 nM). […] 1 μl of the sample was spotted on the polyethyleneimine-coated TLC plate, resolved in 1M Formic Acid and 0.3M LiCl. The products of ATP hydrolysis were then visualized by Phosphoimager scans taken in Typhoon™ laser-scanner platform (Cytiva) and quantitated using the inbuilt software.

[1] = system: MDR genes (MRP2, MRP3, MRP5, MXR) in HCT116 IC60 CPTR cells; details: 100 nM compound alone, 72 hours
Description: Concentrations of CPT used: 0.140 nM, 20 nM, 50 nM, 1000 nM. Concentration of 1-OHP: 0.14 μM, 2 μM, 4 μM, 6 μM, 8 μM. Concentrations of CDDP used: 0.140 μM, 2 μM, 5 μM, 10 μM. The percentage of viable cells were determined by MTT assays (FIG. 12A-12C). The data in FIG. 12A and FIG. 12C is from three independent experiments and the data in FIG. 12B is from nine independent experiments. […] The levels of MRP2, MRP3, MRP5, MXR were quantitated from three independent experiments. […] Specifically, HCT116 IC60 CPTR cells were transfected with the HR substrate for 72 hours and the levels of HR was determined (FIG. 6A). The data is from three independent experiments. […] The number of soft agar colonies in each condition were counted. The data is from three independent experiments.

| Compound | Kd (His-RAD54 WT) [µM] | levels of RAD54 bound to GST-BLM WT (RAD54-BLM interaction) | BLM dependent enhancement of ATP binding by RAD54 (RAD54) | BLM dependent enhancement of ATPase activity of RAD54 (ATP hydrolysis) (RAD54 ATPase activity) | transcript levels of MDR genes [1] |
| --- | --- | --- | --- | --- | --- |
| CC(=O)Nc1nnc(S(N)(=O)=O)s1 [C3, Acetazolamide] | 55.8 | disrupted the RAD54-BLM interaction | decreased BLM dependent enhancement of the binding of ATP by RAD54 | reduced the extent of ATP hydrolysis | do not alter the transcript levels of MDR genes |
| OCCN(CCO)c1nc(N2CCCCC2)c2nc(N(CCO)CCO)nc(N3CCCCC3)c2n1 [C7, Dipyridamole] | 5.04 | disrupted the RAD54-BLM interaction | decreased BLM dependent enhancement of the binding of ATP by RAD54 | reduced the extent of ATP hydrolysis | do not alter the transcript levels of MDR genes |
| CN1CCN(C2=Nc3ccccc3Oc3ccc(Cl)cc32)CC1.O=C(O)CCC(=O)O [C17, Loxapine succinate] | 0.0803 |  | decreased BLM dependent enhancement of the binding of ATP by RAD54 | reduced the extent of ATP hydrolysis |  |
